Laboratory results published in article PMC6406907, “A H2AX–CARP-1 Interaction Regulates Apoptosis Signaling Following DNA Damage” (Cancers, 2019).
No end group written: not given here. HA = not defined here

Key:
MDA-MB-468 cells [1] = details: 10 μM dose, ref [16]; cited from earlier work
Excerpt: Here, we utilized human TNBC MDA-MB-468 and human cervical cancer HeLa cells to conduct an MTT-based dose-response analysis using Adriamycin and CFM compounds. […] Since Adriamyci ...

MDA-MB-468 cells [2] = experiment: Transduction/localization of TAT-tagged proteins, MDA-MB-468; assay type: cell-based, human; details: MDA-MB-468, 300 μg/mL, confocal
Procedure: Cells were plated onto chamber slides one day before treatment. Following treatment of cells with respective compounds, the adherent cells were fixed with 5% formaldehyde for 10 min and then washed with phosphate buffered saline (PBS). Samples were blocked (0.5% NP-40, 5% milk powder, 1% fetal bovine serum) for 30 min. After a single wash with PBS, cells were incubated with primary antibodies for 45 to 60 min. Coverslips were washed with PBS and then incubated with secondary antibodies for another 45 to 60 min. They were then washed with PBS and mounted with 0.1 μg/mL 4′,6′-diamidino-2-phenylindole (DAPI) containing mounting solution. […]
We further tested whether and the extent to which transient and ectopic expression of CARP-1 (636–650) peptide would also interfere with the cell-growth inhibition by Adriamycin. […] The wild-type MDA-MB-468 or HeLa cells were pre-incubated with His-TAT-HA-EGFP or His-TAT-HA-CARP-1 (636–650) proteins, and presence of GFP and CARP-1 (636–650) was determined by immuno-cytochemical staining followed by photography using a confocal microscope as above. […]
Figure S9. […] Multiple cells from each of the confocal images in the γH2AX column of Figure 8C were subjected to quantitation for levels of γH2AX. The quantitation of the images of stained cells was carried out by using ImageJ software (imagej.nih.gov/ij/plugins/track/jacop2). […]

Row | Compound | inhibition of growth (MDA-MB-468 cells [1]) | cellular localization after transduction (MDA-MB-468 cells [2])
1 | O=C1N(Cc2ccccc2Cl)c2ccccc2C12NN=C(c1cccc(Cl)c1)S2 (centres unmarked) [CFM-4.16] | robust inhibition of growth | 
2 | His-TAT-HA-CARP-1 (636–650): His-TAT-HA-tagged CARP-1 (636–650) peptide, >95% purity, commercially synthesized ({His-TAT-HA}-PKTMKVNDLRKELES; reading uncertain; UniProt Q8IX12 636-650, looked up, fragment) |  | predominantly present in the cytoplasmic region
